Laboratory results as given in US20140099662A1, “PHOTOTOXICITY TEST METHOD” (SUMITOMO CHEMICAL COMPANY, LIMITED, priority 2011, published 2014).
Converted amounts (≈) assume the structure as drawn. Where two headings read alike, the source gives them in different places.

Columns and labels:
[1] = test system: Balb/c 3T3 cells; assay: in vitro
Experimental: (§1) “Balb/c 3T3 cells” are connective tissue cells and fibroblasts.
(§2) The “Balb/c 3T3 cells” cultured in DMEM medium supplemented with 10% bovine serum and L-glutamine were treated with 0.25% trypsin to collect the cells from a culture dish. The collected cells were seeded in a 96-well culture dish previously coated with a 0.1% gelatin solution at 10000 cells per well and then cultured in DMEM medium supplemented with 10% bovine serum and […] in an incubator at 37° C. and 5% CO2 overnight.
(§3) After the cultivation, the medium was removed from the 96-well culture dish using an aspirator and Earle's Balanced Salt Solution (EBSS) was then added to the 96-well culture dish at 150 μl per well to wash the cells.
(§4) After the 96-well culture dish was shaded by wrapping with aluminum foil, irradiation of the culture dish shaded with aluminum foil with light was carried out using a light irradiation device (a solar simulator SXL-2500V2: SERIC LTD.) for 40 minutes (the light irradiation dose is about 5 J/cm^2 by calculation based on irradiation strength at 360 nm). Immediately after light irradiation, the 96-well culture dish was washed twice with 150 μl of a DMEM/F12 culture liquid and a DMEM/F12 culture liquid supplemented with N2-supplement was then added to the 96-well culture dish at 100 μl per well, followed by cultivation overnight.
(§5) After the cultivation, the medium was removed from the 96-well culture dish and a previously prepared mixed solution of equal amounts of DMEM/F12 culture liquid and Cell titer Glo reaction liquid was then added to the 96-well culture dish at 100 μl per well.
(§6) The obtained 96-well culture dish was allowed to stand at room temperature for 30 minutes while shaking in a shaded state with aluminum foil and 95 μl of culture contained in the 96-well culture dish was then transferred to a white 96-well examining dish.
(§7) Next, the amount of luminescence of the culture contained in the 96-well examining dish (the amount of luminescence has a correlation with the cell survival rate) was measured by EnVision Multilabel Reader (PerkinElmer). The 50% inhibitory concentration (IC50) of a test substance to the human retinal pigment epithelial cells was calculated from the measured values and the calculated value was considered as a value showing cytotoxicity (an index value correlated therewith).
(§8) The “Balb/c 3T3 cells” cultured in DMEM medium supplemented with 10% bovine serum and L-glutamine were treated with 0.25% trypsin to collect the cells from a culture dish. The collected cells were seeded in a 96-well culture dish previously coated with a 0.1% gelatin solution at 10000 cells per well and then cultured in DMEM medium supplemented with 10% bovine serum and L-glutamine in an incubator at 37° C. and 5% CO2 overnight.
(§9) Unlike Comparative Example 1, light irradiation was carried out using a light irradiation device (a solar simulator SXL-2500V2: SERIC LTD.) for 40 minutes without wrapping the 96-well culture dish with aluminum foil (light irradiation dose is about 5 J/cm^2 by calculation based on light irradiation strength at 360 nm). Immediately after light irradiation, the 96-well culture dish was washed twice with 150 μl of a DMEM/F12 culture liquid and a DMEM/F12 culture liquid supplemented with N2-supplement was then added to the 96-well culture dish at 100 μl per well, followed by cultivation overnight.
as §6, with “dish. Next, the amount of luminescence of the culture contained in the 96-well examining dish (the amount of luminescence has a correlation with the cell survival rate) was measured by EnVision Multilabel Reader (PerkinElmer).” for “dish.”

[2] = test system: yeast-RBC; details: 4 facilities, validation study report Aug. 27, 2004; cited from earlier work
[3] = test system: human retinal pigment epithelial cells; assay: in vitro
Experimental: (§10) The human retinal pigment epithelial cells prepared in Example 2 were treated with 0.25% trypsin to collect the cells from a culture dish. The collected cells were seeded in a 96-well culture dish previously coated with Matrigel at 100000 or 120000 cells per well and then cultured in an incubator at 37° C. and 5% CO2.
(§11) After the cultivation for 2 hours to 4 hours, the medium was removed from the 96-well culture dish using an aspirator and Earle's Balanced Salt Solution (EBSS) was then added to the 96-well culture dish at 150 μl per well to wash the cells.
as §4, with “minutes (light” for “minutes (the light”, “dose of” for “dose is”, “5 J/cm^2).” for “5 J/cm^2 by calculation based on irradiation strength at 360 nm).”
as §5
as §7, with “The obtained 96-well culture dish was allowed to stand at room temperature for 30 minutes while shaking in a shaded state with aluminum foil and 95 μl of culture contained in the 96-well culture dish was then transferred to a white 96-well examining dish. Next,” for “Next,”
(§12) Unlike Example 3, irradiation with light was carried out using a light irradiation device (a solar simulator SXL-2500V2: SERIC LTD.) for 40 minutes without wrapping the 96-well culture dish with aluminum foil (light irradiation dose is about 5 J/cm^2 by calculation based on light irradiation strength at 360 nm). Immediately after light irradiation, the 96-well culture dish was washed twice with 150 μl of a DMEM/F12 culture liquid and a DMEM/F12 culture liquid supplemented with N2-supplement was then added to the 96-well culture dish at 100 μl per well, followed by cultivation overnight.
(§13) The above-described PIF value (Photo Irritation Facor value) was obtained based on the 50% inhibitory concentration (IC50) calculated in Example 3 and Example 4 (that is, a value obtained by dividing the cytotoxicity IC50 value in human retinal pigment epithelial cells exposed to a test substance (a (shaded) control for non-light Irradiation) by the cytotoxicity IC50 value in human retinal pigment epithelial cells cultured under simulated solar light irradiation within 24 hours after the onset of exposure to the test substance). […] When the value (PIF value) was greater than 5, the test substance was evaluated as phototoxicity-positive.

[4] = in vitro; details: human, IC50 (50% inhibitory concentration, cytotoxicity)
Experimental: as §10, §11
as §4, with “minutes (light” for “minutes (the light”, “dose of” for “dose is”, “5 J/cm^2).” for “5 J/cm^2 by calculation based on irradiation strength at 360 nm).”
as §5
as §7, with “The obtained 96-well culture dish was allowed to stand at room temperature for 30 minutes while shaking in a shaded state with aluminum foil and 95 μl of culture contained in the 96-well culture dish was then transferred to a white 96-well examining dish. Next,” for “Next,”
as §12, §13

[5] = in vitro; details: mouse, IC50 (50% inhibitory concentration, cytotoxicity)
Experimental: as §1, §2, §3, §4, §5, §6, §7, §8, §9
as §6, with “dish. Next, the amount of luminescence of the culture contained in the 96-well examining dish (the amount of luminescence has a correlation with the cell survival rate) was measured by EnVision Multilabel Reader (PerkinElmer).” for “dish.”

[6] = test system: human retinal pigment epithelial cells
Experimental: The relationship between the light irradiation dose and the above-described PIF value (that is, a value obtained by dividing the cytotoxicity IC50 value in human retinal pigment epithelial cells exposed to a test substance (a (shaded) control for non-light irradiation) by the cytotoxicity IC50 value in human retinal pigment epithelial cells cultured under simulated solar light irradiation within 24 hours after the onset of contact with the test substance) was examined using chlorpromazine (CPZ) used as a positive control in the OECD guideline. Light irradiation was set to each condition of a light of 2.09 mW/cm^2 (measured with UVR300 manufactured by TOPCON CORPORATION equipped with photoreceiving part UD360) for 15 minutes (1.87 J/cm^2), 20 minutes (2.50 J/cm^2), 25 minutes (3.13 J/cm^2), 30 minutes (3.75 J/cm^2), 40 minutes (5.00 J/cm^2) and 60 minutes (7.51 J/cm^2), and the phototoxicity test method was carried out according to the methods described in Example 3 and Example 4. The phototoxicity test method in shaded conditions as a control for non-light irradiation was carried out in the same manner as in the phototoxicity test method under light irradiation except that light was blocked.
The number of viable cells of the human retinal pigment epithelial cells was checked for 15 minutes (1.87 J/cm^2), 20 minutes (2.50 J/cm^2), 25 minutes (3.13 J/cm^2), 30 minutes (3.75 J/cm^2), 40 minutes (5.00 J/cm^2) and 60 minutes (7.51 J/cm^2).

[7] = shaded (control for non-light irradiation)
[8] = shaded with aluminum foil (control for non-light irradiation), 40 minutes, then cultivation overnight
[9] = simulated solar light irradiation 40 minutes, about 5 J/cm^2
[10] = simulated solar light irradiation 40 minutes, about 5 J/cm^2 at 360 nm, then cultivation overnight

SMILES | photocytotoxicity determination by the comparative phototoxicity test method [1] | PIF value (Photo Irritation Facor value) = IC50 shaded / IC50 under light irradiation ([1]; mouse, 40 min) | result in the yeast-RBC assay [2] | photocytotoxicity determination by the phototoxicity test method of the present invention [3] | IC50 (50% inhibitory concentration, cytotoxicity) ([3]; human, 40 min) [µg/mL] | IC50 at 40 min [4] [µg/mL] | IC50 (50% inhibitory concentration, cytotoxicity) ([1]; mouse, 40 min) [µg/mL] | PIF value (Photo Irritation Facor value) = IC50 shaded / IC50 under light irradiation ([3]; human, 40 min) | photocytotoxicity determination by the comparative phototoxicity test method ([1]; evaluation based on PIF value) | photocytotoxicity determination by the phototoxicity test method of the present invention ([3]; evaluation based on PIF value) | further results
Oc1c(Cl)cc(Cl)cc1Sc1cc(Cl)cc(Cl)c1O [Bithionol, bithionol] | photocytotoxicity-positive | 12.4 | false positive | photocytotoxicity-negative | > 10 | > 10 |  |  |  |  | concentration at or below which cytotoxicity was not observed ([3]; human, 40 min): ≤ 10 µg/mL
[H]/N=C(\N/C(=N/[H])NCCCCCCNC(=N)NC(=N)Nc1ccc(Cl)cc1)Nc1ccc(Cl)cc1 [Chlorhexidine, chlorhexidine] | photocytotoxicity-negative | 1.4 | false positive | photocytotoxicity-negative | 43.7 (≈ 86.5 µM) | 42.7 (≈ 84.5 µM) | 10.1 (≈ 20 µM) | 0.98 |  |  | IC50 at 40 min [5]: 13.7 µg/mL (≈ 27.1 µM)
CN(C)CCCN1c2ccccc2Sc2ccc(Cl)cc21 [Chlorpromazine (CPZ), chlorpromazine] | photocytotoxicity-positive | 23.7 |  | photocytotoxicity-positive |  |  |  | 6.5 |  |  | PIF ([6]; 15 min): 1.70; PIF ([6]; 20 min): 1.72; PIF ([6]; 25 min): 3.35; light irradiation dose by which the number of viable cells under light irradiation significantly decreases relative to light blocked conditions ([6]; 25 min, 10 μg/ml): ≥ 3.13 J/cm^2; PIF ([6]; 30 min): 4.57; PIF ([6]; 40 min): 6.53; PIF ([6]; 60 min): 10.94
CC1(C)S[C@@H]2[C@H](NC(=O)Cc3ccccc3)C(=O)N2[C@H]1C(=O)O [Penicillin G, penicillin G] |  |  |  |  |  |  |  |  | photocytotoxicity-negative | photocytotoxicity-negative | PIF value (Photo Irritation Facor value) = IC50 shaded / IC50 under light irradiation ([1]; from Comparative Example 1 and Comparative Example 2, greater than 5 = phototoxicity-positive): Photocytotoxicity is not Confirmed; concentration at or below which cytotoxicity was not observed [1, 7]: ≤ 1000 µg/mL; IC50 (50% inhibitory concentration, cytotoxicity) [1, 8]: > 1000 µg/mL; concentration at or below which cytotoxicity was not observed [1, 9]: ≤ 1000 µg/mL; IC50 (50% inhibitory concentration, cytotoxicity) [1, 10]: > 1000 µg/mL; PIF value (Photo Irritation Facor value) = IC50 shaded / IC50 under light irradiation ([3]; from Example 3 and Example 4, greater than 5 = phototoxicity-positive): Photocytotoxicity is not Confirmed; concentration at or below which cytotoxicity was not observed [3, 7]: ≤ 1000 µg/mL; IC50 (50% inhibitory concentration, cytotoxicity) [3, 8]: > 1000 µg/mL; concentration at or below which cytotoxicity was not observed [3, 9]: ≤ 1000 µg/mL; IC50 (50% inhibitory concentration, cytotoxicity) [3, 10]: > 1000 µg/mL
C=C[C@H]1C[N@@]2CC[C@H]1C[C@H]2[C@H](O)c1ccnc2ccc(OC)cc12 [Quinine, quinine] |  | 128.8 |  |  | 88.9 (≈ 274 µM) | 147 (≈ 453 µM) | 2.3 (≈ 7.09 µM) | 1.7 | photocytotoxicity-positive | photocytotoxicity-negative | IC50 ([1]; mouse, 40 min): 292 µg/mL (≈ 901 µM)
